Experimental data as given in patent EP4667486A1, “COMPOSITION COMPRISING CD38 OR FRAGMENT THEREOF FOR TREATING AUTOIMMUNE DISEASES” (DNT Co., Ltd., priority 2023, dated 2024).

Assays:
DCs = experiment: LPS-induced TNF-α secretion from bone marrow-derived dendritic cells (ELISA), sCD38 functional domain screening; assay type: cell-based, mouse; settings: DCs from bone marrow cells treated with GM-CSF, FIG. 1-3
Procedure: To isolate bone marrow cells, mice (Damool Science, Korea) were anesthetized and sacrificed, and the femur and tibia were removed aseptically and the tissue attached to the bones was removed. After cutting off both ends of the bones, bone marrow was collected by slowly injecting 5-10 mL of a cell culture medium or a solution used for bone marrow separation into the medullary cavity at one end using a syringe needle, which was then filtered through a 70 µm cell strainer (SPL Life Sciences, Korea) and centrifuged to collect bone marrow cells. After treating with 1 mL of an RBC lysis solution (Merck, Germany) for 2-5 minutes to remove red blood cells, 10 mL of Dulbecco's phosphate-buffered saline (DPBS) (GIBCO, USA) was added, and bone marrow cells were collected through centrifugation. After washing the bone marrow cells 3 times with DPBS, 10 mL of a BMDC culture medium (RPMI-1640 (Welgene, Korea) containing 10% FBS (GIBCO, USA) and 10 ng/mL GM-CSF (Peprotech, USA)) was added to disperse the bone marrow cells into single cells. 1×10^5 bone marrow cells were dispensed into a 24-well culture dish and differentiated in a 37 °C incubator maintained at 5% CO2.
To screen the functional domain of sCD38 that induces dendritic cell tolerance, the domain of sCD38 was largely divided into three parts (CD38 amino acid sequence; 42-140 (1), 130-220 (2), 210-304 (3)). Using the three parts of sCD38, TNF-α secretion was observed as one of the indicators of the degree of DC tolerance induction.
An E. coli expression system was used to express the sCD38 domain protein. The sCD38 domain protein expressed in E. coli was purified using a purification system and used for screening. For fast and easy screening of the domain protein of sCD38, an ELISA method that measures the pro-inflammatory cytokine TNF-α was adopted. When the DCs obtained by treating the bone marrow cells with GM-CSF are treated with LPS, the DCs differentiate into mature DCs and the secretion of TNF-α is increased. It was confirmed that TNF-α secretion from DCs induced by LPS was reduced by the treatment with sCD38 (SEQ ID NO: 33). As a result of treating with sCD38 functional domain, (1) 42-140, (2) 130-220, and (3) 210-304, it was confirmed that the TNF-α secretion from dendritic cells induced by LPS (Merck, Germany) was reduced by the sCD38 functional domain (3).
After the first screening of the sCE38 functional domain that induces dendritic cell tolerance, the selected domain was divided into two parts (C-term 226-265 and C-term 266-304 of CD38 210-304 (3), (SEQ ID NO: 26)). After the domain was divided into two parts, TNF-α secretion was observed as one of the indicators of the degree of DC tolerance induction.
An E. coli expression system was used to express the divided two parts of sCD38. As a result of treating with the divided two parts (C-term 226-265, C-term 266-304) of the sCD38 functional domain (3), it was confirmed that the TNF-α secretion from dendritic cells induced by LPS was reduced by the sCD38 functional domain C-term 266-304.
After the second screening of the sCE38 functional domains that induce dendritic cell tolerance, the screened domain was divided into seven parts and peptide synthesis was performed (peptide 1: 233-247 of sCD38 226-304, peptide 2: 251-265, peptide 3: 269-283, peptide 4: 266-304 (SEQ ID NO: 26), peptide 5 (M19): 286-304 (SEQ ID NO: 21), peptide 6 (M16): 287-302 (SEQ ID NO: 11), peptide 7 (M14): 287-300 (SEQ ID NO: 4)). […]

[1] = test system: autoimmune uveitis animal model; experiment: Animal model of autoimmune uveitis (IRBP/PTX-induced), severity; assay type: in vivo, C57BL/6 mice; settings: injected into the eye twice a week, versus uninjected uveitis control; FIG. 4
Procedure: Autoimmune uveitis was induced by […] retinoid-binding protein (IRBP) (Peptron, Korea) into the hind limb muscles of C57BL/6 mice (Damool Science, Korea) and intraperitoneal injection of pertussis toxin (PTX) (List Lab, USA). After 10 to 14 days, the presence or absence of autoimmune uveitis was confirmed in the eyes of the mice. The functional domain of sCD38 (226-304) was injected into the eye of the animal model that developed autoimmune uveitis twice a week to determine the progression of autoimmune uveitis. An autoimmune uveitis animal model to which the functional domain of sCD38 (226-304) was not injected was used as a control group, and animals to which the functional domain of sCD38 (226-304) was injected were used as a test group. The severity of autoimmune uveitis was measured for the experimental animals.

[2] = test system: animal model of rheumatoid arthritis; experiment: Collagen-induced arthritis (CIA) animal model of rheumatoid arthritis, hind ankle thickness; assay type: in vivo, DBA/1 mice; settings: summary statement referring to Example 8
Procedure: For induction of collagen-induced arthritis (CIA), 8-9 week-old male DBA/1 mice (Central Lab. Animal, Korea) were immunized with bovine type II collagen (CII) (Central Lab. Animal, Korea). CII was dissolved in 0.05 N acetic acid at a concentration of 2 mg/mL and emulsified at a ratio of 1:1 with complete Freund's adjuvant (CFA) (Central Lab. Animal, Korea) at 4 °C. For the first immunization, 150 µL of a mixture of 100 µg CII and 100 µg CFA was injected intradermally into the tail of the mice. Three weeks later, before booster injection, the sCD38 functional domain (sCD38-3) (226-304) or saline was injected into the ankle joint of the mice, and an equal volume of CII, emulsified at a ratio of 1:1 with incomplete Freund's adjuvant (IFA) (Merck, Germany), was injected into the tail (booster injection). The sCD38 functional domain (sCD38-3) was injected three more times, once a week. After 4 weeks of the booster injection, the mice were euthanized for analysis. After the booster injection, the thickness of the hind ankle of the animal model was measured using a vernier caliper.

human dendritic cells = experiment: LPS-induced TNF-α secretion from human monocyte-derived dendritic cells; assay type: cell-based; settings: FIG. 9
Procedure: To isolate human monocytes, 20 mL of whole blood was withdrawn and mix with an equal volume of PBS. After adding 15 mL of Ficoll (GE HealthCare, USA) to a 50-mL tube, 15 mL of diluted whole blood was slowly added onto the Ficoll. Likewise, an equal amount of the remaining whole blood was dispensed slowly into a 50-mL tube containing 15 mL of Ficoll. Centrifugation was performed at 1000 x g for 20 minutes in a centrifuge at room temperature. After carefully removing plasma from the isolated whole blood, a portion including peripheral blood mononuclear cells (PBMCs) was transferred to a new 50-mL tube. After adding 10 mL of PBS to the tube containing PBMCs and mixing gently, centrifugation was performed at 400 x g for 10 minutes at room temperature. After carefully removing the supernatant, 1 mL of an RPMI 1640 medium containing 10% FBS was added to the PBMC pellets, and the cells were counted. After adding an RPMI-1640 medium (Welgene, Korea) containing 10% FBS to 1x10^6 cells per mL, 100 ng/mL GM-CSF (Peprotech, USA) and 50 ng/mL IL-4 (Peprotech, USA) were mixed. After adding 500 µL of PMBC to each well of a 24-well plate, the cells were differentiated in an incubator at 37 °C maintained at 5% CO2 for 5 days.
It was confirmed whether the sCD38 functional domain that induces tolerance of dendritic cells is also effective in human dendritic cells. To identify the functional domain of human sCD38, the C-terminal portion of human CD38 (H18 (283-300), H13 (284-296) (SEQ ID NO: 2)) were prepared into peptides. Human sCD38 and M19 peptides were treated as positive controls, and TNF-α secretion was observed using H18 and H13 peptides as one of the indicators of the degree of DC tolerance induction.
It was confirmed that the TNF-α secretion induced by LPS from human dendritic cells was reduced by the sCD38 functional domain peptides when the human sCD38 and M19 peptides were treated as positive controls and they were treated with the H18 and H13 peptides.

[3] = test system: ulcerative colitis animal model; experiment: DSS-induced animal model of ulcerative colitis, colon length; assay type: in vivo, C57BL/6 mice; settings: for colon length: 20 µg intrarectally daily for 2 weeks, DSS 6-7 days, FIG. 8
Procedure: A control ulcerative colitis animal model was established by allowing C57BL/6 mice (Damool Science, Korea) to drink drinking water containing 2-3% dextran sulfate sodium (DSS) (MP Biomedicals, China) for 6-7 days. Administration of DSS increases the level of inflammatory cytokines and causes colitis in mice. The experimental animal model was treated with DSS for 6-7 days, and 20 µg of the sCD38 functional domain (M19 peptide (Peptron, Korea)) was injected intrarectally daily for 2 weeks. Then, it was determined whether the progression of ulcerative colitis was reduced. LiCl (Merck, Germany) was used instead of the sCD38 functional domain (M19 peptide) for a positive control group.
In contrast, it was confirmed that the colon length of the experimental animal model treated with the sCD38 functional domain (M19 peptide) was not shortened.

Sequence | TNF-α secretion from dendritic cells induced by LPS (DCs) | TNF-α secretion induced by LPS from human dendritic cells (human dendritic cells) | further results
RFLQCVKNPEHPSCRL (REGION 1..16: note = 16 mer (Mouse)) [M16, synthesized peptide 287-302 of mouse sCD38] | reduces | – | –
LKMIVQKRNMIFACVDNYRPARFLQCVKNPEHPSCRLNT (REGION 1..39: note = 39 mer (Mouse)) [peptide 4, synthesized peptide 266-304 of mouse sCD38] | reduced | – | progression of autoimmune uveitis [1]: reduces; rheumatoid arthritis [2]: reduces
FLQCVKNPEDSSC (REGION 1..13: note = 13 mer (Human or Chimpaanze)) [H13, peptide 284-296 of human CD38] | – | reduces | –
ARFLQCVKNPEHPSCRLNT (REGION 1..19: note = 19 mer (Mouse)) [M19, synthesized peptide 286-304 of mouse sCD38] | reduced | reduced | colon length [3]: prevents shortening of the colon; colon length ([3]; listed as M19 peptide): not shortened; progression of ulcerative colitis ([3]; summary statement referring to Example 9): reduces
RFLQCVKNPEHPSC (REGION 1..14: note = 14 mer (Mouse, Rat or Horse)) [M14, synthesized peptide 287-300 of mouse sCD38] | reduces | – | –
KFLQCVKNPEDSSCTSEI (REGION 1..18: note = 18 mer (Human or Chimpaanze)) [H18, domain peptide 283-300 of human CD38] | reduced | reduces | –
